Assay results published in patent US5023264A, “Rapamycin oximes” (American Home Products Corporation, priority 1990, dated 1991).
In brackets after ≈: the same amount, converted by molar mass.

Tests used:
[1] = system: immunosuppressive activity; assay: Standard pharmacological test procedures described supra (isomers of Example 1; overall immunosuppressive activity); parameters: species or system mouse; conditions: results not presented for the inactive isomer
Protocol: (§1) Immunosuppressive activity was evaluated in an in vitro standard pharmacological test procedure to measure lymphocyte proliferation (LAF) and in two in vivo standard pharmacological test procedures. The first in vivo procedure was a popliteal lymph node (PLN) test procedure which measured the effect of compounds of this invention on a mixed lymphocyte reaction and the second in vivo procedure evaluated the survival time of a pinch skin graft.
(§2) Briefly, cells from the thymus of normal BALB/c mice are cultured for 72 hours with PHA and IL-1 and pulsed with tritiated thymidine during the last six hours. […] Cells are harvested and incorporated; radioactivity is determined. Inhibition of lymphoproliferation is assessed in percent change in counts per minute from non-drug treated controls. The results are expressed by the following ratio: [formula]
A mixed lymphocyte reaction (MLR) occurs when lymphoid cells from genetically distinct animals are combined in tissue culture. Each stimulates the other to undergo blast transformation which results in increased DNA synthesis that can be quantified by the incorporation of tritiated thymidine. […] On Day 3 and Day 4, tritiated thymidine is given i.p., b.i.d. On Day 5, the hind popliteal lymph nodes are removed and dissolved, and radioactivity counted. […] Percent suppression is calculated using the non-drug treated animals as allogenic control. […]

[2] = system: thymocyte (lymphocyte) proliferation; assay: Comitogen-induced thymocyte proliferation procedure (LAF); type: cell-based; conditions: in vitro, thymus cells of BALB/c mice, PHA and IL-1, 72 hours; ratio calculated as described (rapamycin 1.0)
Protocol: as §1, §2
(§3) *Calculation of ratios was described supra.
(§4) Transplanted pinch skin grafts are typically rejected within 6-7 days without the use of an immunosuppressive agent. […] (see, I. Roitt et al. Immunology, C. V. Moseby Co. 1989, p 12.8-12.11).

[3] = system: mixed lymphocyte reaction in popliteal lymph node (host vs. graft); assay: Popliteal lymph node (PLN) test procedure, in vivo mixed lymphocyte reaction; parameters: species or system mouse (BALB/c donors, C3H recipients); conditions: for PLN (ratio): p.o. daily Day 0 to Day 4, ratio calculated as described (rapamycin 1.0)
Protocol: as §1
A mixed lymphocyte reaction (MLR) occurs when lymphoid cells from genetically distinct animals are combined in tissue culture. Each stimulates the other to undergo blast transformation which results in increased DNA synthesis that can be quantified by the incorporation of tritiated thymidine. Since stimulating a MLR is a function of disparity at Major Histocompatibility antigens, an in vivo popliteal lymph node (PLN) test procedure closely correlates to host vs. graft disease. Briefly, irradiated spleen cells from BALB/c donors are injected into the right hind foot pad of recipient C3H mice. The drug is given daily, p.o. from Day 0 to Day 4. On Day 3 and Day 4, tritiated thymidine is given i.p., b.i.d. On Day 5, the hind popliteal lymph nodes are removed and dissolved, and radioactivity counted. The corresponding left PLN serves as the control for the PLN from the injected hind foot. Percent suppression is calculated using the non-drug treated animals as allogenic control. […] Results are expressed by the following ratio: [formula]
as §3, §4

[4] = system: pinch skin graft rejection; assay: Survival time of pinch skin graft; type: in vivo, mouse (male DBA/2 donors, male BALB/c recipients); conditions: for Skin Graft survival (days + SD): intraperitoneally, mean graft survival time ± S.D.
Protocol: as §1
The second in vivo test procedure is designed to determine the survival time of pinch skin graft from male DBA/2 donors transplanted to male BALB/c recipients. The method is adapted from Billingham R. E. and Medawar P. B., J. Exp. Biol. 28:385-(402), 1951. Briefly, a pinch skin graft from the donor is grafted on the dorsum of the recipient as a homograft, and an autograft is used as control in the same region. […] Untreated recipients serve as rejection control. The graft is monitored daily and observations are recorded until the graft becomes dry and forms a blackened scab. This is considered as the rejection day. The mean graft survival time (number of days±S.D.) of the drug treatment group is compared with the control group.
as §4

[5] = system: Candida albicans ATCC 10231; assay: Antifungal plate test, MIC, strain ATCC 10231; type: cell-based; conditions: plate disk test
Protocol: (§5) The following represents the typical procedure used. Compound to be tested was placed on sterile dried 1/4" plate disks, and allowed to dry. Agar plates were seeded with fungi and allowed to solidify. The impregnated disks were placed on the seeded Agar surface and incubated for the time required for the particular culture. Results are expressed in MIC (μg/ml) to inhibit growth.

[6] = system: Candida albicans ATCC 38246; assay: Antifungal plate test, MIC, strain ATCC 38246; type: cell-based; conditions: plate disk test
Protocol: as §5

[7] = system: Candida albicans ATCC 38247; assay: Antifungal plate test, MIC, strain ATCC 38247; type: cell-based; conditions: plate disk test
Protocol: as §5

[8] = system: Candida albicans ATCC 38248; assay: Antifungal plate test, MIC, strain ATCC 38248; type: cell-based; conditions: plate disk test
Protocol: as §5

[9] = system: Candida albicans 3669; assay: Antifungal plate test, MIC, strain 3669; type: cell-based; conditions: plate disk test
Protocol: as §5

[10] = system: transplant rejection; conditions: cited from earlier work
[11] = system: Candida albicans; conditions: particularly against Candida albicans, in vitro and in vivo; cited from earlier work
[12] = system: experimental allergic encephalomyelitis, a model for multiple sclerosis; conditions: cited from earlier work
[13] = system: IGE-like antibodies; conditions: in vivo; cited from earlier work

Row | Molecule | LAF (ratio) [2] | Skin Graft survival (days + SD) [4] | MIC [5] | MIC [6] | MIC [7] | MIC [8] | MIC [9] | Immunosuppressive effect / inhibition of transplant rejection [10] | also measured
1 | CO[C@H]1C[C@@H]2CC[C@@H](C)[C@@](O)(O2)C(=O)C(=O)N2CCCC[C@H]2C(=O)O[C@H]([C@H](C)C[C@@H]2CC[C@@H](O)[C@H](OC)C2)CC(=O)[C@H](C)/C=C(\C)[C@@H](O)[C@@H](OC)C(=NO)[C@H](C)C[C@H](C)/C=C/C=C/C=C/1C (single isomer, unassigned) [isomerically pure mono-oxime, Rapamycin-27-oxime] |  |  |  |  |  |  |  |  | Biological activity of the isomers of Example 1 [1]: biologically inactive
2 | CO[C@H]1C[C@@H]2CC[C@@H](C)[C@@](O)(O2)C(=O)C(=O)N2CCCC[C@H]2C(=O)O[C@H]([C@H](C)C[C@@H]2CC[C@@H](O)[C@H](OC)C2)CC(=O)[C@H](C)/C=C(\C)[C@@H](O)[C@@H](OC)C(=NOCc2ccccc2)[C@H](C)C[C@H](C)/C=C/C=C/C=C/1C [Example 2, Rapamycin-O-benzyl-27-oxime] | 0.87 | 9.3 ± 1.4 days | > 0.4 µg/mL | > 0.4 µg/mL | > 0.4 µg/mL | > 0.4 µg/mL | > 0.4 µg/mL |  | PLN (ratio) [3]: 1.39
3 | CON=C1[C@H](C)C[C@H](C)/C=C/C=C/C=C(\C)[C@@H](OC)C[C@@H]2CC[C@@H](C)[C@@](O)(O2)C(=O)C(=O)N2CCCC[C@H]2C(=O)O[C@H]([C@H](C)C[C@@H]2CC[C@@H](O)[C@H](OC)C2)CC(=O)[C@H](C)/C=C(\C)[C@@H](O)[C@H]1OC [Example 3, Rapamycin-O-methyl-27-oxime] | 0.007 | 9.5 ± 1.4 days | 0.2 µg/mL (≈ 0.212 µM) | 0.05 µg/mL (≈ 0.053 µM) | 0.2 µg/mL (≈ 0.212 µM) | 0.05 µg/mL (≈ 0.053 µM) | 0.2 µg/mL (≈ 0.212 µM) |  | 
4 | C=CC[C@@H]1/C=C(\C)C[C@H](C)C[C@H](OC)[C@H]2O[C@@](O)(C(=O)C(=O)N3CCCC[C@H]3C(=O)O[C@H](/C(C)=C/[C@@H]3CC[C@@H](O)[C@H](OC)C3)[C@H](C)[C@@H](O)CC1=O)[C@H](C)C[C@@H]2OC [FK-506] |  |  |  |  |  |  |  | effective as immunosuppressive agents | 
5 | CO[C@H]1C[C@@H]2CC[C@@H](C)[C@@](O)(O2)C(=O)C(=O)N2CCCC[C@H]2C(=O)O[C@H]([C@H](C)C[C@@H]2CC[C@@H](O)[C@H](OC)C2)CC(=O)[C@H](C)/C=C(\C)[C@@H](O)[C@@H](OC)C(=O)[C@H](C)C[C@H](C)/C=C/C=C/C=C/1C [Rapamycin] |  | 12.0 ± 1.7 days |  |  |  |  |  | effective in inhibiting transplant rejection | Antifungal activity [11]: antifungal activity, particularly against Candida albicans, both in vitro and in vivo; Effect in experimental allergic encephalomyelitis model [12]: effective in the experimental allergic encephalomyelitis model; Inhibition of formation of IGE-like antibodies [13]: effectively inhibited the formation of IGE-like antibodies
6 | Rapamycin-27-oxime [Example 1] | 0.25 | 10.0 ± 1.6 days | 0.05 µg/mL | 0.2 µg/mL | 0.05 µg/mL | 0.1 µg/mL | 0.2 µg/mL |  | T cell proliferation in the PLN test procedure (in words) ([3]; from negative PLN ratio): may cause T cell proliferation in the PLN test procedure; PLN (ratio) [3]: -1.40; Skin graft survival time (in words) ([4]; compared with grafts without immunosuppressive agent, rejected within 6-7 days): increased survival time observed in the skin graft test procedure; Biological activity of the isomers of Example 1 [1]: active in the assays described supra
7 | cyclosporin A |  |  |  |  |  |  |  | effective as immunosuppressive agents | 
